According to ChEMBL document CHEMBL1125711, “Flavins as potential antimalarials. 2. 3-Methyl-10-(substituted-phenyl) flavins” (J Med Chem, 1991):

Legend:
[1] = species: Mus musculus; assay: Effective dose required to obtain a parasitaemia of 40% 48 hours after treatment in mice; format: functional
[2] = tested on: Mus musculus; assay: Increase in mean survival days was determined in mice after ip administration of 10 mg/kg; format: functional; conditions: route intraperitoneal
[3] = tested on: Mus musculus; assay: Antimalarial activity was evaluated against Plasmodium vinckei vinckei V52 after intraperitoneal administration at dose 25 mg/kg; format: functional
[4] = tested on: Mus musculus; assay: (§1) Increase in mean survival days was determined in mice after ip administration of 70 mg/kg; toxic; format: functional; conditions: route intraperitoneal
[5] = tested on: Mus musculus; assay: Antimalarial activity was evaluated against Plasmodium vinckei vinckei V52 after intraperitoneal administration at dose 60 mg/kg; format: functional
[6] = tested on: Plasmodium vinckei vinckei; assay: Antimalarial activity against Plasmodium vinckei V52 after 20 mg/kg intraperitoneal dose; format: functional
[7] = tested on: Plasmodium vinckei vinckei; assay: Antimalarial activity against Plasmodium vinckei V52 on 30 mg/kg intraperitoneal dose; format: functional
[8] = tested on: Mus musculus; assay: Antimalarial activity was evaluated against Plasmodium vinckei V52 after intraperitoneal administration at dose 70 mg/kg; format: functional
[9] = tested on: Mus musculus; assay: Antimalarial activity was evaluated against Plasmodium vinckei vinckei V52 after intraperitoneal administration at dose 50 mg/kg; format: functional
[10] = tested on: Plasmodium vinckei vinckei; assay: Antimalarial activity against Plasmodium vinckei V52 on 10 mg/kg intraperitoneal dose; format: functional
[11] = tested on: Mus musculus; assay: Increase in mean survival days was determined in mice after ip administration of 60 mg/kg; format: functional; conditions: route intraperitoneal
[12] = tested on: Mus musculus; assay: Antimalarial activity was evaluated against Plasmodium vinckei vinckei V52 after intraperitoneal administration at dose 40 mg/kg; format: functional
[13] = tested on: Mus musculus; assay: Antimalarial activity was evaluated against Plasmodium vinckei V52 after intraperitoneal administration at dose 15 mg/kg; format: functional
[14] = tested on: Mus musculus; assay: Increase in mean survival days was determined in mice after ip administration of 30 mg/kg; format: functional; conditions: route intraperitoneal
[15] = tested on: Mus musculus; assay: as §1; format: ADME, organism-based; design: dose 70 mg/kg, route intraperitoneal; conditions: in vivo
[16] = tested on: Mus musculus; assay: Antimalarial activity was evaluated against Plasmodium vinckei V52 after intraperitoneal administration at dose 40 mg/kg; format: functional
[17] = tested on: Plasmodium vinckei vinckei; assay: Antimalarial activity against Plasmodium vinckei V52 on 70 mg/kg intraperitoneal dose; format: functional
[18] = tested on: Mus musculus; assay: Increase in mean survival days was determined in mice after ip administration of 50 mg/kg; toxic; format: functional; conditions: route intraperitoneal
[19] = tested on: Mus musculus; assay: Antimalarial activity was evaluated against Plasmodium vinckei V52 after intraperitoneal administration at dose 50 mg/kg; format: functional
[20] = tested on: Mus musculus; assay: Increase in mean survival days was determined in mice after ip administration of 40 mg/kg; format: functional; conditions: route intraperitoneal
[21] = tested on: Mus musculus; assay: Increase in mean survival days was determined in mice after ip administration of 20 mg/kg; format: functional; conditions: route intraperitoneal
[22] = tested on: Mus musculus; assay: Antimalarial activity was evaluated against Plasmodium vinckei V52 after intraperitoneal administration at dose 20 mg/kg; format: functional
[23] = tested on: Mus musculus; assay: Increase in mean survival days was determined in mice after ip administration of 15 mg/kg; format: functional; conditions: route intraperitoneal
[24] = tested on: Mus musculus; assay: Antimalarial activity was evaluated against Plasmodium vinckei vinckei V52 after intraperitoneal administration at dose 30 mg/kg; format: functional
[25] = tested on: Mus musculus; assay: Increase in mean survival days was determined in mice after ip administration of 50 mg/kg; format: functional; conditions: route intraperitoneal
[26] = tested on: Mus musculus; assay: Antimalarial activity was evaluated against Plasmodium vinckei V52 after intraperitoneal administration at dose 30 mg/kg; format: functional
[27] = tested on: Mus musculus; assay: Antimalarial activity was evaluated against Plasmodium vinckei vinckeii V52 after intraperitoneal administration at dose 60 mg/kg; format: functional
[28] = tested on: Plasmodium vinckei vinckei; assay: Increase in mean survival days of Plasmodium inoculated mice (Mus musculus) after 70 mg/Kg intraperitoneal dose; format: functional
[29] = tested on: Mus musculus; assay: Antimalarial activity was evaluated against Plasmodium vinckei V52 after intraperitoneal administration at dose 10 mg/kg; format: functional
[30] = tested on: Mus musculus; assay: Antimalarial activity was evaluated against Plasmodium vinckei V52 after intraperitoneal administration at dose 25 mg/kg; format: functional
[31] = tested on: Mus musculus; assay: Increase in mean survival days was determined in mice after ip administration of 25 mg/kg; format: functional; conditions: route intraperitoneal
[32] = tested on: Mus musculus; assay: Increase in mean survival days was determined in mice after ip administration of 25 mg/kg; toxic; format: functional; conditions: route intraperitoneal
[33] = tested on: Mus musculus; assay: Increase in mean survival days was determined in mice after ip administration of 20 mg/kg; toxic; format: functional; conditions: route intraperitoneal
[34] = tested on: Mus musculus; assay: Antimalarial activity was evaluated against Plasmodium vinckei vinckeii V52 after intraperitoneal administration at dose 50 mg/kg; format: functional
[35] = tested on: Mus musculus; assay: Increase in mean survival days was determined in mice after ip administration of 30 mg/kg; toxic; format: functional; conditions: route intraperitoneal
[36] = tested on: Mus musculus; assay: Antimalarial activity was evaluated against Plasmodium vinckei V52 after intraperitoneal administration at dose 60 mg/kg; format: functional

Row | Structure (SMILES) | ED40 [1] | Mean survival days [2] | Cured [3] | Cured [6] | Cured [7] | Cured [8] | Cured [10] | Cured [13] | Mean survival days [14] | Cured [17] | Cured [19] | Mean survival days [21] | Mean survival days [23] | Mean survival days [25] | Mean survival days [28] | further results
1 | Cn1c(=O)nc2n(-c3cccc(C(F)(F)F)c3)c3ccccc3nc-2c1=O | 79.3 µmol/kg | 1.4 days | 100% | 100% | 100% | 0% | 33% | 100% | – | – | – | – | – | – | – | Mean survival days [4]: 7.5 days; Cured [5]: 40%; Cured [9]: 100%; Mean survival days [11]: 10 days; Cured [12]: 100%
2 | Cn1c(=O)nc2n(-c3cc(Cl)ccc3Cl)c3ccccc3nc-2c1=O | – | 0 days | – | – | 0% | 0% | 0% | – | 0 days | – | – | – | – | – | – | Mean survival days [15]: -0.6 days
3 | Cn1c(=O)nc2n(-c3ccc(S(C)(=O)=O)cc3)c3ccccc3nc-2c1=O | – | 0 days | – | – | 0% | – | 0% | – | 0.2 days | 0% | 0% | – | – | – | – | Mean survival days [4]: -2 days; Cured [16]: 0%; Mean survival days [18]: -0.8 days; Mean survival days [20]: -0.5 days
4 | Cc1cc(Cl)cc(-n2c3nc(=O)n(C)c(=O)c-3nc3ccccc32)c1 | 85.7 µmol/kg | 0.2 days | 100% | – | – | – | 0% | 60% | – | 100% | – | 1 days | 0.5 days | – | – | Cured [22]: 80%; Cured [9]: 100%; Cured [24]: 100%; Cured [12]: 100%
5 | COc1cc(OC)cc(-n2c3nc(=O)n(C)c(=O)c-3nc3ccccc32)c1 | 219 µmol/kg | 0 days | – | 0% | – | – | 0% | – | 0 days | 100% | – | – | – | 0 days | – | Cured [5]: 20%; Cured [9]: 0%; Mean survival days [11]: 3 days
6 | Cn1c(=O)nc2n(-c3cccc([N+](=O)[O-])c3)c3ccccc3nc-2c1=O | – | – | – | – | – | 0% | – | – | – | – | – | – | – | – | -0.5 days | Cured [26]: 0%; Cured [27]: 0%; Mean survival days [11]: 1 days; Cured [29]: 0%
7 | Cn1c(=O)nc2n(-c3cccc(F)c3)c3ccccc3nc-2c1=O | – | 0.2 days | – | 0% | 0% | – | 0% | 0% | 0.2 days | 0% | 20% | 0 days | 0.2 days | 0 days | – | Cured [30]: 0%; Mean survival days [4]: -1 days; Mean survival days [31]: 0 days; Cured [12]: 0%; Mean survival days [20]: 0.8 days
8 | CCc1ccccc1-n1c2nc(=O)n(C)c(=O)c-2nc2ccccc21 | – | 0 days | 0% | 0% | – | – | 0% | – | – | – | – | – | – | – | – | Mean survival days [32]: -2 days; Mean survival days [33]: -2 days
9 | CCc1cccc(-n2c3nc(=O)n(C)c(=O)c-3nc3ccccc32)c1 | – | – | 0% | 0% | 0% | 0% | 0% | – | 0 days | – | – | 0 days | 0 days | – | 0.3 days | Mean survival days [31]: 0 days
10 | Cn1c(=O)nc2n(-c3cc(C(F)(F)F)cc(C(F)(F)F)c3)c3ccccc3nc-2c1=O | – | 0 days | – | – | – | 0% | – | – | 0 days | – | – | 0 days | – | 0 days | 0 days | Cured [22]: 0%; Cured [26]: 0%; Cured [34]: 0%; Cured [29]: 0%
11 | Cc1ccccc1-n1c2nc(=O)n(C)c(=O)c-2nc2ccccc21 | – | -0.2 days | – | 0% | 0% | – | 0% | – | – | – | – | – | – | – | – | Mean survival days [35]: -2 days; Mean survival days [33]: -1 days
12 | Cc1cc(-n2c3nc(=O)n(C)c(=O)c-3nc3ccccc32)ccc1Cl | 182 µmol/kg | 0 days | – | 0% | – | – | 0% | – | 0 days | 80% | 25% | – | – | 0.3 days | 2 days | Cured [36]: 100%; Cured [16]: 0%; Mean survival days [20]: 0.3 days
13 | CCCCc1ccc(-n2c3nc(=O)n(C)c(=O)c-3nc3ccccc32)cc1 | – | 0 days | 0% | 0% | 0% | 0% | 0% | 0% | 0 days | – | – | 0 days | 0 days | 0 days | 0.5 days | Cured [9]: 0%; Mean survival days [31]: 0.1 days
14 | COc1ccc(-n2c3nc(=O)n(C)c(=O)c-3nc3ccccc32)cc1 | 138 µmol/kg | 0 days | – | 0% | – | – | 0% | – | 0.4 days | 60% | 80% | – | – | 2 days | – | Cured [36]: 80%; Cured [16]: 20%; Mean survival days [15]: -0.5 days; Mean survival days [11]: 1 days; Mean survival days [20]: 1 days
15 | Cc1cccc(-n2c3nc(=O)n(C)c(=O)c-3nc3ccccc32)c1 | – | 0.8 days | – | 0% | 0% | – | 0% | 0% | 0 days | 0% | 0% | 0.5 days | 0 days | 0.5 days | 0.3 days | Cured [30]: 0%; Mean survival days [31]: 0 days
